For data set [1] the following is noted: literature; cited from earlier work.
Data set [2] deals with glycine binding site of the NMDA receptor. The note with it: cited from earlier work; for affinity / antagonism at the glycine binding site, in words: literature.
The target in data set [3] is strychnine insensitive glycine site associated with the NMDA receptor complex. To be noted: Swartz et al., cited from earlier work; for Kb: Mol. Pharmacol. 41:1130-1141 (1992), footnote d.
Data set [4] concerns the target T1, glycine binding site of the NMDA receptor (Rattus norvegicus, UniProt P35439).
T1 construct: rat brain membrane homogenates which are enriched in NMDA receptors; tissue Pel-Freez, Rogers, Ark; host or cells: whole rat brain, washed membrane homogenate
Briefly: 1 μM glycine-stimulated [3H]-MK-801 binding, rat brain membrane homogenates. To be noted: for IC50: rat brain homogenates, [3H]-MK-801 binding, 1 μM glycine; for activity (glycine receptor antagonism), in words: structure-activity statements. As for the experimental part: ^a Experiments described herein utilizing rat brain homogenates and a
The assay is conducted using rat brain membrane homogenates which are enriched in NMDA receptors. The membranes are prepared as follows. Frozen rat brains (obtained from Pel-Freez, Rogers, Ark.) are homogenized in 15 volumes (w/v) of ice cold 0.32M sucrose. The homogenate is spun at 1,000×g for ten minutes. The supernatant is collected and spun for 20 minutes at 44,000×g. The pellet is suspended in 15 volumes of water (relative to original brain weight). The homogenate is again spun at 44,000×g for twenty minutes. The pellet is resuspended in 5 volumes of water and the suspension is freeze-thawed 2 times. After the final thaw cycle, the suspension is brought to 15 volumes with water and spun at 44,000×g for twenty minutes. The pellet is resuspended in 5 volumes of ice-cold 10 mM HEPES, and is titrated to pH 7.4 with KOH containing 0.04% Triton X-100. Membranes are incubated with the Triton/HEPES buffer at 37° C. for 15 minutes. The volume is then brought to 15 with ice-cold 10 mM HEPES, pH 7.4, and spun/washed three times with spins of 44,000×g between washes. The final pellet is suspended in three volumes of 50 mM HEPES, pH 7.4 and the protein concentration is determined with a standard dye-binding protein assay (Bio-Rad, Richmond, Calif.). The suspension is stored at -80° C. until used. Only HPLC grade water is used for all buffers and suspensions/washings. The extensive washings are necessary to remove as much endogenous glycine from the membrane preparation as possible.
Nonspecific binding is defined as the […] presence of PCP (final concentration: 100 μM). […] A 500 nM concentration (final) of 5,7-dichlorokynurenic (DCK) acid is added to all assay tubes. This concentration of the glycine antagonist DCK "buffers" most of the residual endogenous glycine that is not removed by the extensive washing steps that are carried out during the membrane preparation procedure.
The assays are incubated for 120 minutes at room temperature after which time the membrane-bound radioactivity is isolated from the free radioactivity by vacuum filtration through Whatman glass fiber filters that had been pretreated with 0.3% polyethyleneimine. Filtration is accomplished using a Brandel 48 well cell harvester. Filtered membranes are washed three times with 3 mL each of ice cold buffer. Filters are transferred to scintillation vials and 5 mL of scintillation cocktail is added. The vials are shaken overnight and the radioactivity is counted by liquid scintillation spectroscopy. The assays are done in triplicate and all experiments are conducted at least three times.
Inhibition dose response curves are constructed using increasing concentrations of glycine antagonists from 5 nM to 330 μM.
After constructing inhibition dose response curves and determination of glycine reversibility, Ki values for the glycine antagonists are calculated using the Cheng and Prusoff equation employing the experimentally determined IC50 values, the known concentration of glycine in the assay (1 μM) and the known affinity of glycine for the glycine binding site of the NMDA receptor (100 nM).
Binding Assays and In Vivo Studies.

Another data set concerns male Swiss/Webster mice. Briefly: maximum electroshock-induced seizure (MES) assay. Format: in vivo, mouse. The note with it: anticonvulsant, MES in mice; for ED50: Mus musculus, iv. As for the experimental part: The anticonvulsant activity of the glycine antagonists may be assessed in the maximum electroshock-induced seizure (MES) assay in mice. […] The seizure stimulus parameters are 50 mA, 60 Hz, rectangular pulse, width 0.8 msec, duration 200 msec. Tonic hind limb extension observed after application of the electrical stimulus is recorded as occurrence of seizure.

For another data set, the target named is T2, glycine/NMDA receptor (Rattus norvegicus, UniProt P35439).
T2 construct: expressed in transfected cells; host or cells: Xenopus oocytes (RNA injected)
Briefly: electrophysiology using Xenopus oocytes. Format: cell-based.

For a further data set, the system named is guinea pig ileum. To be noted: guinea pig ileum contraction; footnote c; cited from earlier work.
The target of data set [5] is strychnine insensitive glycine site associated with the NMDA receptor complex. To be noted: rat brain homogenates, [3H]-glycine binding; footnote b; cited from earlier work.
The subject of data set [6] is neurons in brain ischemia. To be noted: literature; cited from earlier work.
The next data set has as its system rodents. The note with it: literature; cited from earlier work.
The mark [7] stands for this setting: from electrophysiology using Xenopus oocytes unless otherwise noted, read-out: Ki.

Where two headings read alike, the source gives them in different places.

This is an account of results in patent publication US5476933A, “Azepine synthesis via a diels-alder reaction” (priority 1994, dated 1995).

In the case of `NC1CCN(O)C1=O` (stereo not drawn) [HA-966], the “blood/brain barrier penetration, in words” value in data set [1] is listed as “sufficiently penetrates the blood/brain barrier”. For the same compound, in data set [2], the “affinity / antagonism at the glycine binding site, in words” value (from here on “affinity / antagonism”) is on record as “partial agonist with micromolar affinity for the glycine binding site”.
On to `Cc1ccc2[nH]c(=O)c(O)cc(=O)c2c1` [Compound 2], for which, in data set [3], the Kb was 9500 nM and the “antagonism, in words” value is “antagonists at the strychnine insensitive glycine site”.
In the case of `O=c1[nH]c2cc(F)ccc2c(=O)cc1O` [Compound 5], the IC50 in data set [4] (read-out: IC50) was 1700 nM. Besides, the “activity (glycine receptor antagonism), in words” value (shortened to “activity”) in [4] is given as “enhanced activity”.
Turning to `Cc1ccc(C)c2c(=O)cc(O)c(=O)[nH]c12` [Compound 45, 3-Hydroxy-6,9-dimethyl-1H-1-benzazepine-2,5-dione], the IC50 result in data set [4] is “inactive”.
The compound `CC1Cc2[nH]c(=O)c(O)cc(=O)c2CC1C` (stereo not drawn) [Compound 81, 7,8-dimethyl-3-hydroxy-6,7,8,9-tetrahydro-1H-1-benzazepine-2,5-dione] had an ED50 in the data set on male Swiss/Webster mice of 6 mg/kg. In addition, the inhibition constant (Ki) on glycine/NMDA receptor (setting [7]) came to 177 nM. Moreover, the IC50 in data set [4] (read-out: IC50) worked out at 9280 nM.
In the case of `O=c1[nH]c2cc(Br)ccc2c(=O)cc1O` [Compound 7], the IC50 in the data set on guinea pig ileum was 1000 nM; in data set [4] (read-out: IC50), 1300 nM; in [5] it was 97 nM. Further, the “activity” value in [4] is given as “enhanced activity”.
For `O=C(O)c1cc(O)c2c(Cl)cc(Cl)cc2n1` [5,7-dichlorokynurenic acid (DCK), 5,7-dichlorokynurenic acid], in [2], the “affinity / antagonism” value was “relatively high receptor binding affinity in vitro”.
On to `O=C(O)c1cc2ccccc2[nH]1` [indole-2-carboxylic acid], for which the “blood/brain barrier penetration, in words” value in data set [1] is “cannot penetrate the blood/brain barrier”. Further, in data set [2], the “affinity / antagonism” value is listed as “relatively high receptor binding affinity in vitro”.
As to `Cc1cc(C)c2c(=O)cc(O)c(=O)[nH]c2c1` [Compound 97, 6,8-Dimethyl-3-hydroxy-1H-1-benzazepine-2,5-dione], the IC50 in [4] (read-out: IC50) came to 26000 nM.
For the compound `O=c1[nH]c2cc(Cl)c(Cl)c([N+](=O)[O-])c2[nH]c1=O` [6,7-dichloro-5-nitro-1,4-dihydroquinoxaline-2,3-dione], the “ED50 (MES)” value in the data set with male Swiss/Webster mice lay within 4 to 5 mg/kg. The Ki on glycine/NMDA receptor stood at 3.3 nM.
In the case of `Cc1cc2[nH]c(=O)c(O)cc(=O)c2cc1C` [Compound 46, 3-Hydroxy-7,8-dimethyl-1-benzazepine-2,5-dione], the half-inhibitory concentration (IC50) in data set [4] (read-out: IC50) was determined as 7300 nM.
For the compound `O=C(O)C1CC2CC(CP(=O)(O)O)CCC2CN1` (stereo not drawn) [LY274614], the “neuroprotective efficacy, in words” value in data set [6] is on record as “neuroprotective efficacy”.
For the compound `O=C(O)[C@@H]1C[C@H](CP(=O)(O)O)CCN1` [CGS 19755], in [6], the “neuroprotective efficacy, in words” value is listed as “neuroprotective efficacy”. The “PCP-like behavioral effects, in words” value with rodents is recorded as “adverse PCP-like behavioral side effects”.
As to `O=c1cc(O)c(=O)[nH]c2c1C1CCC2CC1` [Compound 87, 6,9-Ethano-3-hydroxy-6,7,8,9-tetrahydro-1H-1-benzazepine-2,5-dione], in the data set on male Swiss/Webster mice, the ED50 was 8 mg/kg. Moreover, the Ki on glycine/NMDA receptor (setting [7]) was 332 nM. In addition, in data set [4] (read-out: IC50), the IC50 was determined as 6700 nM.
Regarding `Cc1cc(C)c2[nH]c(=O)c(O)cc(=O)c2c1` [Compound 44, 3-Hydroxy-7,9-dimethyl-1H-1-benzazepine-2,5-dione], in [4], the IC50 result is “inactive”.
`O=c1[nH]c2ccc([N+](=O)[O-])cc2c(=O)cc1O` [Compound 11]: the concentration for half-maximal inhibition (IC50) in data set [4] (read-out: IC50) amounted to 300000 nM.
Take `Cc1ccc2c(=O)cc(O)c(=O)[nH]c2c1` [Compound 3]: in data set [3], the Kb is 470 nM and the “antagonism, in words” value is listed as “antagonists at the strychnine insensitive glycine site”. Moreover, in [4] (read-out: IC50), the IC50 stood at 3400 nM. Besides, the “activity” value in [4] was “enhanced activity”.
`CC1c2c([nH]c(=O)c(O)cc2=O)CC(Cl)C1Cl` (stereo not drawn) [Compound 112, 7,8-dichloro-3-hydroxy-6-methyl-6,7,8,9-tetrahydro,1H-1-benzazepine-2,5-dione]: at glycine/NMDA receptor (setting [7]), the Ki amounted to 7 nM. The IC50 in data set [4] (read-out: IC50) was determined as 380 nM.
Take `O=c1[nH]c2ccccc2c(=O)cc1O` [Compound 1, 3-hydroxy-1H-1-benzazepine-2,5-dione]: in data set [3], the Kb was 3000 nM and the “antagonism, in words” value was “antagonists at the strychnine insensitive glycine site”. The IC50 in data set [4] (read-out: IC50) was 7800 nM.
As to `NCC(=O)O` [glycine], the Kd in data set [2] (used in Cheng and Prusoff equation, read-out: known affinity of glycine for the glycine binding site of the NMDA receptor) was 100 nM.
As to `CC(=O)Nc1ccc2[nH]c(=O)c(O)cc(=O)c2c1` [Compound 12], the IC50 in [4] (read-out: IC50) is 92500 nM.
For the compound `O=c1cc(O)c(=O)[nH]c2c1C1CCC2C1` (stereo not drawn) [Compound 70, 3-hydroxy-6,9-methano-6,7,8,9-tetrahydro-1H-1-benzazepine-2,5-dione], the inhibitory constant (Ki) in data set [4] (from binding assays (footnote d of Table 2)) was determined as 760 nM. The IC50 in data set [4] (read-out: IC50) came out at 8400 nM.
In the case of `Cc1ccc2[nH]c(=O)c(O)cc(=O)c2c1C` [Compound 109, 6,7-dimethyl-3-hydroxy-1H-1-benzazepine-2,5-dione], the IC50 entry in data set [4] is “inactive”.
Regarding `O=c1[nH]c2cc(C(F)(F)F)ccc2c(=O)cc1O` [Compound 16], the IC50 in [4] (read-out: IC50) worked out at 3400 nM. For the same compound, the “activity” value in [4] is “enhanced activity”.
As for `O=C(O)c1cc(O)c2ccc(Cl)cc2n1` [7-Cl-kynurenic acid], the “blood/brain barrier penetration, in words” value in [1] is “cannot penetrate the blood/brain barrier”. Also, the “affinity / antagonism” value in [2] was “relatively high receptor binding affinity in vitro”.
As for `O=c1[nH]c2ccc(Br)cc2c(=O)cc1O` [Compound 15], the IC50 result in data set [4] was “Inactive”.
Still for that read-out and setting: under `Cc1cccc2c(=O)cc(O)c(=O)[nH]c12` [Compound 43, 3-Hydroxy-9-methyl-1H-1-benzazepine-2,5-dione] stands “inactive”.
Take `O=c1[nH]c2cc(Cl)ccc2c(=O)cc1O` [Compound 6]: the values for the IC50 (in the data set with guinea pig ileum; in [4] (read-out: IC50); in data set [5]) were 110 nM, 2500 nM and 30 nM, respectively. For the same compound, the “activity” value in [4] is “enhanced activity”.
Regarding `Cc1cc2[nH]c(=O)c(O)cc(=O)c2c(C)c1[N+](=O)[O-]` [Compound 99, 6,8-Dimethyl-3-hydroxy-7-nitro-1H-1-benzazepine-2,5-dione], the half-maximal inhibitory concentration (IC50) in data set [4] (read-out: IC50) is 69500 nM.
Take `O=C(Nc1ccc2[nH]c(=O)c(O)cc(=O)c2c1)C(F)(F)F` [Compound 13]: the IC50 entry in [4] is “Inactive”.
For `[N-]=[N+]=Nc1ccc2[nH]c(=O)c(O)cc(=O)c2c1` [Compound 14], the IC50 entry in data set [4] was “Inactive”.
The compound `O=c1cc(O)c(=O)[nH]c2c1CC(Cl)C(Cl)C2` (stereo not drawn) [Compound 74, 3-Hydroxy-7,8-dichloro-6,7,8,9-tetrahydro-1H-1-benzazepine-2,5-dione] returned an ED50 in the data set with male Swiss/Webster mice of 30 mg/kg. The Ki at glycine/NMDA receptor (setting [7]) was determined as 30 nM. Further, the half-maximal inhibitory concentration (IC50) in data set [4] (read-out: IC50) was 3600 nM.
`Cc1cccc2[nH]c(=O)c(O)cc(=O)c12` [Compound 93, 3-Hydroxy-6-methyl-1H-1-benzazepine-2,5-dione]: the IC50 in [4] (read-out: IC50) was 196000 nM.

The term IC50 denotes the concentration that gives 50% inhibition. By ED50 is commonly meant the dose at which the effect has come halfway, by size or by number of responders. High values mean a need for a large dose, low ones an effect at a small dose. The Ki is a measure of affinity in units of concentration, obtained from inhibition or displacement.
